Patent US10087144B2, “Agents for use in the treatment of cardiovascular and inflammatory diseases structurally based on 4(1 H)-quinolone” (UCL Business PLC, priority 2015, dated 2018)

Experiments:
[1] = tested on: rat mesenteric artery smooth muscle cells; assay: Ca2+ flux in response to Angiotensin II in isolated rat mesenteric artery smooth muscle cells (FLIPR); type: cell-based; conditions: inhibition of Angiotensin II (100 nM) Ca2+ flux peak fluorescence; for inhibition at 1 µM / inhibition at 10 µM: Rattus norvegicus; for inhibition at 1 µM: read-out: % inhibition 1 μM; for inhibition at 10 µM: read-out: % inhibition 10 μM
Protocol: Mesenteric artery smooth muscle cells were isolated from male Sprague-Dawley rats (200-250 g). Mesenteric arteries were dissected, cleared of extraneous tissue and incubated in an enzyme solution containing collagenase type I (1 mg/ml), soybean trypsin inhibitor (0.25 mg/ml), bovine albumin (1 mg/ml), CaCl2 (0.2 mM), 100 U/ml penicillin (100 U/ml) and streptomycin (100 μg/ml) in a humidified incubator with 5% CO2 in air. The enzyme solution was replenished at 30 min intervals and cells were pelleted by centrifugation (200 g, 5 min) and differentially plated (×2) for 15 min in Dulbecco's Modified Eagle's Medium (DMEM) supplemented with penicillin (100 U/ml), streptomycin (100 μg/ml), L-Glutamine (2 mM) and 10% heat inactivated New Zealand foetal calf serum. Cells were passaged by trypsinisation and viability determined by trypan blue exclusion.
Measurements of Ca^2+ flux in response to Angiotensin II were conducted using a Fluorescent Imaging Plate Reader (FLIPR; Molecular Devices). Cells were plated at a density of 10,000 cells/well into black, clear-bottomed 96-well plates in DMEM supplemented with penicillin (100 U/ml), streptomycin (100 μg/ml), L-Glutamine (2 mM) and 10% heat inactivated New Zealand foetal calf serum. 24 hrs later the cells were incubated with Fluo-3-AM (4 μM) for 60 min at 37° C. Once dye-loaded, the cells were washed thoroughly with the proprietary assay buffer to remove any unincorporated dye. The cells were then incubated with varying concentrations of a number of representative NPR-C agonist molecules of the invention, C-type natriuretic peptide or vehicle (DMSO) and placed into the FLIPR. After 15 mins, Angiotensin II (100 nM) was automatically dispensed into each well and the fluorescence signal followed for 5 mins. Potency was determined by comparison of the peak fluorescence in each test well (run in triplicate) with that of the control (Angiotensin II alone). Background fluorescence (assay buffer only) was subtracted from all values.

rat mesenteric arteries = assay: Vasoreactivity in rat mesenteric arteries in vitro (relaxation of U46619-contracted vessels, tension myograph); conditions: for inhibition at 1 µM / inhibition at 3 µM / inhibition at 10 µM / inhibition at 30 µM / EC50: Rattus norvegicus; for inhibition at 1 µM / inhibition at 3 µM / inhibition at 10 µM / inhibition at 30 µM / % relaxation 1 μM / % relaxation 3 μM / % relaxation 10 μM / % relaxation 30 μM: U46619-contracted third-order arteries; for EC50: vasorelaxation, calculated from concentration-response curves
Protocol: Male rats (Sprague-Dawley; 200-250 g) were stunned and killed by cervical dislocation. The mesentery was removed and third-order arteries mounted in an automated tension myograph (Danish Myotechnology). After an equilibration period of 45 min, vessels were normalized and diameter determined. Following normalization, each vessel was contracted repeatedly with the thromboxane A2-mimetic 9,11-dideoxy-11^α,9^α-epoxymethano-prostaglandin F2α (U46619; 1 μM) until the response was reproducible. The vessels were then washed to restore basal tone before contracting to approximately 50% of the maximum U46619-induced response. Once a stable response to U46619 was achieved, cumulative concentration-response curves were constructed with a variety of NPR-C agonists of the invention at varying concentrations (0.001-30 μM), or vehicle (DMSO). In some studies, concentration-response curves to NPR-C agonists were conducted in the presence of the NPR-C antagonist M372049 (10 μM). Only one curve to any one agonist was constructed in any single tissue.

SMILES | inhibition at 1 µM (rat mesenteric arteries) [%] | inhibition at 3 µM (rat mesenteric arteries) [%] | inhibition at 10 µM (rat mesenteric arteries) [%] | inhibition at 30 µM (rat mesenteric arteries) [%] | EC50 (rat mesenteric arteries) [µM] | further results
O=C(O)c1cn(Cc2ccccc2)c2ccc(Br)cc2c1=O [Compound 27, 1-benzyl-6-bromo-4-oxo-1,4-dihydroquinoline-3-carboxylic acid] |  |  |  |  |  | inhibition at 1 µM ([1]; 1 μM compound): 0%; inhibition at 10 µM ([1]; 10 μM compound): 50%
O=C(O)c1c[nH]c2ccccc2c1=O [Compound 57] |  |  |  |  |  | % inhibition 1 μM ([1]; 1 μM compound): 0%; % inhibition 10 μM ([1]; 10 μM compound): 35%
C[C@H](NC(=O)c1cn(Cc2ccccc2)c2ccc(Br)cc2c1=O)C(=O)OC(C)(C)C [Compound 59, (S)-tert-butyl 2-(1-benzyl-6-bromo-4-oxo-1,4-dihydroquinoline-3-carboxamido)propanoate] |  |  |  |  |  | inhibition at 1 µM ([1]; 1 μM compound): 20%; inhibition at 10 µM ([1]; 10 μM compound): 90%
CC(C)(C)OC(=O)n1cc(C(=O)O)c(=O)c2ccccc21 [Compound 81] | 1 | 1 | 7 | 25 |  | 
CC(C)C(NC(=O)c1cnc2ccccn2c1=O)C(=O)O (centres unmarked) [Compound 120] |  |  |  |  |  | % relaxation 1 μM (rat mesenteric arteries): 0%; % relaxation 3 μM (rat mesenteric arteries): 3%; % relaxation 10 μM (rat mesenteric arteries): 3%; % relaxation 30 μM (rat mesenteric arteries): 20%
O=C(O)CNC(=O)c1cnc2ccccn2c1=O [Compound 121] |  |  |  |  |  | % relaxation 1 μM (rat mesenteric arteries): 5%; % relaxation 3 μM (rat mesenteric arteries): 2%; % relaxation 10 μM (rat mesenteric arteries): 3%; % relaxation 30 μM (rat mesenteric arteries): 17%
CCn1cc(C(=O)O)c(=O)c2ccc(C)nc21 [Compound 137] |  |  |  |  |  | % relaxation 1 μM (rat mesenteric arteries): 0%; % relaxation 3 μM (rat mesenteric arteries): 1%; % relaxation 10 μM (rat mesenteric arteries): 9%; % relaxation 30 μM (rat mesenteric arteries): 69%
O=C(O)c1cn(Cc2cccc(Cl)c2)c2ccccc2c1=O [Compound 155, 1-(3-Chlorobenzyl)-4-oxo-1,4-dihydroquinoline-3-carboxylic acid] | 4 | 6 | 10 | 25 |  | 
CCn1cc(C(=O)NCC(=O)O)c(=O)c2ccccc21 [Compound 171, 2-(1-Ethyl-4-oxo-1,4-dihydroquinoline-3-carboxamido)acetic acid] | 2 | 2 | 8 | 20 | > 50 | 
O=C(O)CNC(=O)c1cn(Cc2cccc(Cl)c2)c2ccccc2c1=O [Compound 172, 2-(1-(3-Chlorobenzyl)-4-oxo-1,4-dihydroquinoline-3-carboxamido)acetic acid] | 5 | 20 | 43 | 91 | > 50 | 
O=C(O)CNC(=O)c1cn(Cc2ccccc2F)c2ccccc2c1=O [Compound 173, 2-(1-(2-Fluorobenzyl)-4-oxo-1,4-dihydroquinoline-3-carboxamido)acetic acid] | 4 | 13 | 15 | 79 | > 50 | 
COc1ccc(Cn2cc(C(=O)NCC(=O)O)c(=O)c3ccccc32)cc1 [Compound 174, 2-(1-(4-Methoxybenzyl)-4-oxo-1,4-dihydroquinoline-3-carboxamido)acetic acid] | 4 | 4 | 8 | 20 | > 50 | 
Cc1cc(C)cc(Cn2cc(C(=O)NCC(=O)O)c(=O)c3ccccc32)c1 [Compound 175, 2-(1-(3.5-Dimethylbenzyl)-4-oxo-1,4-dihydroquinoline-3-carboxamido)acetic acid] | 8 | 8 | 12 | 88 | > 50 | 
O=C(O)CNC(=O)c1cn(Cc2ccc(OC(F)(F)F)cc2)c2ccccc2c1=O [Compound 176, 2-(4-Oxo-1-(4-(trifluoromethoxy)benzyl)-1,4-dihydroquinoline-3-carboxamido)acetic acid] | 8 | 9 | 17 | 91 | > 50 | 
O=C(O)CNC(=O)c1cn(Cc2ccccc2Cl)c2ccccc2c1=O [Compound 177, 2-(1-(2-Chlorobenzyl)-4-oxo-1,4-dihydroquinoline-3-carboxyamido)acetic acid] | 1 | 3 | 6 | 52 | > 50 | 
O=C(O)CNC(=O)c1c[nH]c2ccccc2c1=O [Compound 178, 2-(4-Oxo-1,4-dihydroquinoline-3-carboxamido)acetic acid] | 5 | 6 | 11 | 16 | 17.4 | 
O=C(N[C@@H](Cc1ccccc1)C(=O)O)c1cn(Cc2ccccc2)c2ccc(Br)cc2c1=O [Compound 187, (S)-2-(1-benzyl-6-bromo-4-oxo-1,4-dihydroquinoline-3-carboxamido)-3-phenylpropanoic acid] | 31 | 57 | 93 | 100 | 1.6 | 
CC(C)C[C@H](NC(=O)c1cn(Cc2ccccc2)c2ccc(Br)cc2c1=O)C(=O)O [Compound 188, (S)-2-(1-benzyl-6-bromo-4-oxo-1,4-dihydroquinoline-3-carboxamido)-4-methylpentanoic acid] | 4 | 3 | 2 | 87 | > 50 | 
C[C@H](NC(=O)c1cn(Cc2ccccc2)c2ccc(Br)cc2c1=O)C(=O)O [Compound 189, (S)-2-(1-benzyl-6-bromo-4-oxo-1,4-dihydroquinoline-3-carboxamido)propanoic acid] | 4 | 12 | 64 | 84 |  | 
O=C(N[C@@H](Cc1ccccc1)C(=O)O)c1cn(Cc2ccccc2)c2ccccc2c1=O [Compound 200, (S)-2-(1-benzyl-4-oxo-1,4-dihydroquinoline-3-carboxamido)-3-phenylpropanoic acid] | 4 | 10 | 67 | 89 | > 50 | 
CC(C)C[C@H](NC(=O)c1cn(Cc2ccccc2)c2ccccc2c1=O)C(=O)O [Compound 201, (S)-2-(1-benzyl-4-oxo-1,4-dihydroquinoline-3-carboxamido)-4-methylpentanoic acid] | 0 | 0 | 0 | 82 | > 50 | 
C[C@H](NC(=O)c1cn(Cc2ccccc2)c2ccccc2c1=O)C(=O)O [Compound 202, (S)-2-(1-benzyl-4-oxo-1,4-dihydroquinoline-3-carboxamido)-2-methylethanoic acid] | 2 | 3 | 20 | 36 | 20.3 | 
CC(NC(=O)c1cnc2ccccn2c1=O)C(=O)O (centres unmarked) [Compound 203] |  |  |  |  |  | % relaxation 1 μM (rat mesenteric arteries): 7%; % relaxation 3 μM (rat mesenteric arteries): 6%; % relaxation 10 μM (rat mesenteric arteries): 28%; % relaxation 30 μM (rat mesenteric arteries): 50%
CC(C)CC(NC(=O)c1cnc2ccccn2c1=O)C(=O)O (centres unmarked) [Compound 204] |  |  |  |  |  | % relaxation 1 μM (rat mesenteric arteries): 9%; % relaxation 3 μM (rat mesenteric arteries): 18%; % relaxation 10 μM (rat mesenteric arteries): 30%; % relaxation 30 μM (rat mesenteric arteries): 92%
O=C(NC(Cc1ccccc1)C(=O)O)c1cnc2ccccn2c1=O (centres unmarked) [Compound 205] |  |  |  |  |  | % relaxation 1 μM (rat mesenteric arteries): −9%; % relaxation 3 μM (rat mesenteric arteries): 13%; % relaxation 10 μM (rat mesenteric arteries): 13%; % relaxation 30 μM (rat mesenteric arteries): 14%
